Laboratory results: ChEMBL document CHEMBL4049402, “Synthesis and cytotoxic activity of novel tetrahydrobenzodifuran-imidazolium salt derivatives” (Bioorg Med Chem Lett, 2017)

What was measured:
SW480 = test: Cytotoxicity against human SW480 cells after 48 hrs by MTT assay; format: functional, cell-based; settings: Homo sapiens, SW480, 48 h
SMMC-7721 [1] = test: Induction of apoptosis in human SMMC7721 cells assessed as necrotic cells at 16 uM after 48 hrs by Annexin-V-FITC/propidium iodide staining based flow cytometry (reference value: 3.18%); format: functional
SMMC-7721 [2] = test: Induction of apoptosis in human SMMC7721 cells assessed as late apoptotic cells at 4 uM after 48 hrs by Annexin-V-FITC/propidium iodide staining based flow cytometry (reference value: 2.42%); format: functional
SMMC-7721 [3] = test: Cell cycle arrest in human SMMC7721 cells assessed as accumulation at G0/G1 phase at 2 uM after 24 hrs by propidium iodide staining based flow cytometry (reference value: 70.12 +/- 0.18%); format: functional
SMMC-7721 [4] = test: Induction of apoptosis in human SMMC7721 cells assessed as early apoptotic cells at 16 uM after 48 hrs by Annexin-V-FITC/propidium iodide staining based flow cytometry (reference value: 1.82%); format: functional
SMMC-7721 [5] = test: Induction of apoptosis in human SMMC7721 cells assessed as early apoptotic cells at 4 uM after 48 hrs by Annexin-V-FITC/propidium iodide staining based flow cytometry (reference value: 1.82%); format: functional
SMMC-7721 [6] = test: Cell cycle arrest in human SMMC7721 cells assessed as accumulation at G2/M phase at 4 uM after 24 hrs by propidium iodide staining based flow cytometry (reference value: 3.12 +/- 0.02%); format: functional
SMMC-7721 [7] = test: Induction of apoptosis in human SMMC7721 cells assessed as late apoptotic cells at 8 uM after 48 hrs by Annexin-V-FITC/propidium iodide staining based flow cytometry (reference value: 2.42%); format: functional
MCF7 [8] = test: Potency index, ratio of cisplatin IC50 to compound IC50 for human MCF7 cells; format: functional
SMMC-7721 [9] = test: Induction of apoptosis in human SMMC7721 cells assessed as live cells at 16 uM after 48 hrs by Annexin-V-FITC/propidium iodide staining based flow cytometry (reference value: 92.6%); format: functional
SMMC-7721 [10] = test: Induction of apoptosis in human SMMC7721 cells assessed as late apoptotic cells at 16 uM after 48 hrs by Annexin-V-FITC/propidium iodide staining based flow cytometry (reference value: 2.42%); format: functional
SMMC-7721 [11] = test: Induction of apoptosis in human SMMC7721 cells assessed as early apoptotic cells at 12 uM after 48 hrs by Annexin-V-FITC/propidium iodide staining based flow cytometry (reference value: 1.82%); format: functional
SMMC-7721 [12] = test: Cell cycle arrest in human SMMC7721 cells assessed as accumulation at G0/G1 phase at 4 uM after 24 hrs by propidium iodide staining based flow cytometry (reference value: 70.12 +/- 0.18%); format: functional
A549 = test: Cytotoxicity against human A549 cells after 48 hrs by MTT assay; format: functional, cell-based; settings: Homo sapiens, A549, 48 h
HL-60 = test: Cytotoxicity against human HL60 cells after 48 hrs by MTT assay; format: functional, cell-based; settings: Homo sapiens, HL-60, 48 h
MCF7 [13] = test: Cytotoxicity against human MCF7 cells after 48 hrs by MTT assay; format: functional, cell-based; settings: Homo sapiens, MCF7, 48 h
SMMC-7721 [14] = test: Cell cycle arrest in human SMMC7721 cells assessed as accumulation at S phase at 2 uM after 24 hrs by propidium iodide staining based flow cytometry (reference value: 20.18 +/- 0.02%); format: functional
SMMC-7721 [15] = test: Induction of apoptosis in human SMMC7721 cells assessed as live cells at 8 uM after 48 hrs by Annexin-V-FITC/propidium iodide staining based flow cytometry (reference value: 92.6%); format: functional
SMMC-7721 [16] = test: Induction of apoptosis in human SMMC7721 cells assessed as live cells at 4 uM after 48 hrs by Annexin-V-FITC/propidium iodide staining based flow cytometry (reference value: 92.6%); format: functional
SMMC-7721 [17] = test: Cell cycle arrest in human SMMC7721 cells assessed as accumulation at G2/M phase at 2 uM after 24 hrs by propidium iodide staining based flow cytometry (reference value: 3.12 +/- 0.02%); format: functional
SMMC-7721 [18] = test: Induction of apoptosis in human SMMC7721 cells assessed as late apoptotic cells at 12 uM after 48 hrs by Annexin-V-FITC/propidium iodide staining based flow cytometry (reference value: 2.42%); format: functional
SMMC-7721 [19] = test: Cytotoxicity against human SMMC7721 cells after 48 hrs by MTT assay; format: functional, cell-based; settings: Homo sapiens, SMMC-7721, 48 h
SMMC-7721 [20] = test: Cell cycle arrest in human SMMC7721 cells assessed as increase in G1 population after 24 hrs by propidium iodide staining based flow cytometry; format: functional
SMMC-7721 [21] = test: Induction of apoptosis in human SMMC7721 cells assessed as necrotic cells at 4 uM after 48 hrs by Annexin-V-FITC/propidium iodide staining based flow cytometry (reference value: 3.18%); format: functional
SMMC-7721 [22] = test: Induction of apoptosis in human SMMC7721 cells assessed as early apoptotic cells at 8 uM after 48 hrs by Annexin-V-FITC/propidium iodide staining based flow cytometry (reference value: 1.82%); format: functional
SMMC-7721 [23] = test: Cell cycle arrest in human SMMC7721 cells assessed as accumulation at S phase at 4 uM after 24 hrs by propidium iodide staining based flow cytometry (reference value: 20.18 +/- 0.02%); format: functional
SMMC-7721 [24] = test: Induction of apoptosis in human SMMC7721 cells assessed as necrotic cells at 8 uM after 48 hrs by Annexin-V-FITC/propidium iodide staining based flow cytometry (reference value: 3.18%); format: functional
SMMC-7721 [25] = test: Induction of apoptosis in human SMMC7721 cells assessed as necrotic cells at 12 uM after 48 hrs by Annexin-V-FITC/propidium iodide staining based flow cytometry (reference value: 3.18%); format: functional
SMMC-7721 [26] = test: Induction of apoptosis in human SMMC7721 cells assessed as live cells at 12 uM after 48 hrs by Annexin-V-FITC/propidium iodide staining based flow cytometry (reference value: 92.6%); format: functional
SMMC-7721 [27] = test: Potency index, ratio of cisplatin IC50 to compound IC50 for human SMMC7721 cells; format: functional

Cc1n(Cc2c3c(cc4c2OCC4)OCC3)c2ccccc2[n+]1CC(=O)c1ccc2ccccc2c1.[Br-]
IC50 (SW480): 4.49 µM
Activity (SMMC-7721 [1]): 6.48%
Activity (SMMC-7721 [2]): 3.18%
Activity (SMMC-7721 [3]): 70.58%
Activity (SMMC-7721 [4]): 0.43%
Activity (SMMC-7721 [5]): 1.43%
Activity (SMMC-7721 [6]): 0.94%
Activity (SMMC-7721 [7]): 4.64%
Ratio IC50 (MCF7 [8]): 8.4
Activity (SMMC-7721 [9]): 0.69%
Activity (SMMC-7721 [10]): 92.4%
Activity (SMMC-7721 [11]): 0.98%
Activity (SMMC-7721 [12]): 79.57%
IC50 (A549): 6.1 µM
IC50 (HL-60): 0.8 µM
IC50 (MCF7 [13]): 1.65 µM
Activity (SMMC-7721 [14]): 14.85%
Activity (SMMC-7721 [15]): 87.1%
Activity (SMMC-7721 [16]): 91.9%
Activity (SMMC-7721 [17]): 4.37%
Activity (SMMC-7721 [18]): 37.3%
IC50 (SMMC-7721 [19]): 4.52 µM
Activity (SMMC-7721 [20]): Dose-dependent effect
Activity (SMMC-7721 [21]): 3.44%
Activity (SMMC-7721 [22]): 0.86%
Activity (SMMC-7721 [23]): 8.75%
Activity (SMMC-7721 [24]): 7.42%
Activity (SMMC-7721 [25]): 31%
Activity (SMMC-7721 [26]): 30.7%
Ratio IC50 (SMMC-7721 [27]): 2.7

O=C(C[n+]1cn(Cc2c3c(cc4c2OCC4)OCC3)c2ccccc21)c1ccc2ccccc2c1
IC50 (SW480): 5.42 µM
IC50 (A549): 7.73 µM
IC50 (HL-60): 1.88 µM
IC50 (MCF7 [13]): 2.2 µM
IC50 (SMMC-7721 [19]): 5.25 µM

COc1ccc(C(=O)C[n+]2c(C)n(Cc3c4c(cc5c3OCC5)OCC4)c3ccccc32)cc1
IC50 (SW480): 10.1 µM
IC50 (A549): > 20 µM
IC50 (HL-60): 5.14 µM
IC50 (MCF7 [13]): 7.87 µM
IC50 (SMMC-7721 [19]): > 20 µM

Cc1n(Cc2c3c(cc4c2OCC4)OCC3)c2ccccc2[n+]1Cc1ccc(Br)cc1
IC50 (SW480): 7.22 µM
IC50 (A549): > 20 µM
IC50 (HL-60): 3.63 µM
IC50 (MCF7 [13]): 4.86 µM
IC50 (SMMC-7721 [19]): 7.42 µM

Cc1cc2c(cc1C)[n+](CC(=O)c1ccc3ccccc3c1)cn2Cc1c2c(cc3c1OCC3)OCC2
IC50 (SW480): 14 µM
IC50 (A549): 7.77 µM
IC50 (HL-60): 1.95 µM
IC50 (MCF7 [13]): 8.67 µM
IC50 (SMMC-7721 [19]): 5.64 µM

Brc1ccccc1C[n+]1cn(Cc2c3c(cc4c2OCC4)OCC3)c2ccccc21
IC50 (SW480): 8.95 µM
IC50 (A549): > 20 µM
IC50 (HL-60): 4.9 µM
IC50 (MCF7 [13]): 8.3 µM
IC50 (SMMC-7721 [19]): > 20 µM

Brc1ccc(C[n+]2ccn(Cc3c4c(cc5c3OCC5)OCC4)c2)cc1
IC50 (SW480): > 20 µM
IC50 (A549): > 20 µM
IC50 (HL-60): > 20 µM
IC50 (MCF7 [13]): > 20 µM
IC50 (SMMC-7721 [19]): > 20 µM
